Data as given in paper PMC6270924, “A New Urease Inhibitor from Viola betonicifolia” (Molecules, 2014).

Target: jack bean urease (Canavalia ensiformis, UniProt P07374)
Assay: urease inhibition by indophenol (Weatherburn) ammonia assay; Lineweaver-Burk, secondary replot and Dixon plot kinetics (IC50 […])
Type: biochemical

Sequence of jack bean urease (P07374 whole entry, looked up): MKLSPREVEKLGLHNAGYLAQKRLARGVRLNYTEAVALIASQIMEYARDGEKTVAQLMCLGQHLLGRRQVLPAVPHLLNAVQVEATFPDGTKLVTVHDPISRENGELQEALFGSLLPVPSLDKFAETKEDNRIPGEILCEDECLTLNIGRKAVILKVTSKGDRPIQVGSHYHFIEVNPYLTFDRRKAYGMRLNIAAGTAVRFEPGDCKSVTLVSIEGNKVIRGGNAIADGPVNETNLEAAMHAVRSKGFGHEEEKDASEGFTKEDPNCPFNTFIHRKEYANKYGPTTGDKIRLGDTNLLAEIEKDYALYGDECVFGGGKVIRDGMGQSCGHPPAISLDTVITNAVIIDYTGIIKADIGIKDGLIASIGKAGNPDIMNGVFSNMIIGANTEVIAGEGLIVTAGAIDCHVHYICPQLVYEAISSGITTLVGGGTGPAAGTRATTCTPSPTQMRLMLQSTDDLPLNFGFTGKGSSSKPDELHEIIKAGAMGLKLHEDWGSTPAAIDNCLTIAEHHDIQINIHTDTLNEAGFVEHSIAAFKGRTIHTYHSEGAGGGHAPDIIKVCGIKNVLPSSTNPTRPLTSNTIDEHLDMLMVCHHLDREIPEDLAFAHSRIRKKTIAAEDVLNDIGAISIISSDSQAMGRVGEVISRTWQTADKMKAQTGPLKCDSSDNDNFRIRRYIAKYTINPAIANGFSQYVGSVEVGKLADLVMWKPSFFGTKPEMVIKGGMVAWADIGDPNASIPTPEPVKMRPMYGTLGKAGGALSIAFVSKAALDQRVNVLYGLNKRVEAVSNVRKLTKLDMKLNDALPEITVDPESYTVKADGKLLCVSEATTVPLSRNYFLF

C=C[C@@H](C1=CC(=O)C=C(OC)C1=O)c1ccccc1 [compound 1, 3-methoxydalbergione]
Ki: 138.16 ± 0.06 µM
